Measurements taken from PubChem BioAssay AID1648 (Sanford-Burnham Center for Chemical Genomics, 2009).
Activity calls are given as the source filed them. The rule behind the calls is not given here.

The compounds below were run against Serine/threonine-protein kinase mTOR (Homo sapiens) (UniProt P42345) (assay: mTOR FRB domain ligand binding – biophysical, NMR (AID 1648)). Conditions: NMR binding to FRB domain, chemical shift.
Chain of Serine/threonine-protein kinase mTOR (Homo sapiens) (P42345 2015-2114): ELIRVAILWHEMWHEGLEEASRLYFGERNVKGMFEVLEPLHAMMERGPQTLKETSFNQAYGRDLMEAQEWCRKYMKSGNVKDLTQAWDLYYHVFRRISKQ

Structure (SMILES) | Kd
CC1C[C@H]2CC(=O)[C@H]3CCCN4CCC[C@H]2[C@]34C1 (stereo not given in full) | > 4 mM (inactive)
CNC(=O)c1ccc([N+](=O)[O-])cc1Cl | > 4 mM (inactive)
CC(C)=CC(=O)Nc1ccc2c(c1)OCO2 | > 4 mM (inactive)
Cc1ccc(NC(=O)CC2NCCNC2=O)c(C)c1 (stereo not given) | > 4 mM (inactive)
Cc1cc(C)c2ccc[n+]([O-])c2c1O | > 4 mM (inactive)
CN(C)c1n[nH]c(=O)[nH]c1=O | > 4 mM (inactive)
Cc1ccccc1NC(=O)C1CCC(=O)N1 (stereo not given) | > 4 mM (inactive)
O=C1CN(C(=O)c2ccccc2F)c2ccccc2N1 | > 4 mM (inactive)
Cc1cc(C)nc(/N=C(/N)Nc2cccc(F)c2)n1 | > 4 mM (inactive)
CC1SC(=NC(=O)c2ccncc2)NC1=O (stereo not given) | > 4 mM (inactive)
CN1CCC(NC(=O)Cc2c(F)cccc2Cl)CC1 | > 4 mM (inactive)
O=NN1C(=O)c2ccccc2C1=O | > 4 mM (inactive)
CCOc1nc(C)ccc1-c1noc(-c2ccncc2)n1 | > 4 mM (inactive)
Clc1ncc2[nH]cnc2n1 | > 4 mM (inactive)
CC(C)(O)P(C)(=O)c1ccccc1 (stereo not given) | > 4 mM (inactive)
CN1C2CCC1CC(OC(=O)C(CO)c1ccccc1)C2 (stereo not given) | > 4 mM (inactive)
OCCOc1ccc(C2=NCCO2)cc1 | > 4 mM (inactive)
COC(=O)c1ccccc1C | > 4 mM (inactive)
CCC(=O)Nc1ccc(-c2nn3c(C)nnc3s2)cc1 | > 4 mM (inactive)
CN(Cc1nc2ccccc2n1C)S(C)(=O)=O | > 4 mM (inactive)
O=C(Nc1cccnc1)c1cnn2cccnc12 | > 4 mM (inactive)
COc1ccc(C(C)=O)c(O)c1 | > 4 mM (inactive)
CN(C)C(=O)C12CCC(C)(C(=O)O1)C2(C)C (stereo not given) | > 4 mM (inactive)

Structure (SMILES) | Kd
COc1cc(S(=O)(=O)N(C)C)ccc1F | > 4 mM (inactive)
O=C1C(=O)N(CNc2ncccn2)c2ccccc21 | > 4 mM (inactive)
CC(=O)Nc1ccc(Cl)c(C(N)=O)c1 | > 4 mM (inactive)
Cc1cc(C)c(NC(=O)CN2CCC(O)CC2)c(C)c1 | > 4 mM (inactive)
COc1cc(O)c(C(=O)c2ccccc2)cc1O | > 4 mM (inactive)
COC(=O)c1noc(-c2ccc(OC)cc2)n1 | > 4 mM (inactive)
Cc1ccc(C(C)C)cc2c(C)ccc1-2 | > 4 mM (inactive)
COC(=O)N1CCN(c2ccc(C(C)=O)cc2)CC1 | > 4 mM (inactive)
O=C1C2C3C=CC(C3)C2C(=O)N1c1ccccn1 (stereo not given) | > 4 mM (inactive)
O=C(CNC(=O)c1ccc(F)cc1)NC1=NCCS1 | > 4 mM (inactive)
C/C=C(/C)C(=O)O[C@@H]1[C@H](OC(C)=O)[C@@]2(CO)C(CC1(C)C)C1=CCC3[C@@]4(C)CC[C@H](O[C@@H]5O[C@H](C(=O)O)[C@@H](O[C@@H]6O[C@H](CO)[C@@H](O)[C@H](O)[C@H]6O)[C@H](O)[C@H]5O[C@@H]5O[C@H](CO)[C@@H](O)[C@H](O)[C@H]5O)[C@](C)(CO)C4CC[C@@]3(C)[C@]1(C)C[C@H]2O (stereo not given in full) | > 4 mM (inactive)
Nc1nnc(SCc2ccc3c(c2)OCO3)s1 | > 4 mM (inactive)
O=C(O)c1ccnn1-c1ccccc1 | > 4 mM (inactive)
CCOC(=O)c1nc2ccccc2c(=O)n1N | > 4 mM (inactive)
CC(C)CCCC(C)C1CCC2C3C[C@@H](O)[C@@]4(O)C[C@@H](O)CC[C@]4(C)C3CC[C@]12C (stereo not given in full) | > 4 mM (inactive)
O=C1CCCN1C(=O)CN1CCOCC1 | > 4 mM (inactive)
C=C1CCC(C2CC(=O)OC2=O)C(=O)CCC2C1CC2(C)C (stereo not given) | > 4 mM (inactive)
Clc1ccccc1OCc1nc(-c2ccncc2)no1 | > 4 mM (inactive)
O=C(c1ncc[nH]1)c1ccccc1C(=O)N1CCOCC1 | > 4 mM (inactive)
CC(=O)Nc1ccc(NC(=O)c2ccncc2)cc1 | > 4 mM (inactive)
Cn1cc(Cl)c(C(=O)Nc2ccncc2)n1 | > 4 mM (inactive)
Nc1nc(-c2ccccc2)ns1 | > 4 mM (inactive)
c1ccc(C[N+]23CCN(CC2)CC3)cc1 | > 4 mM (inactive)

Structure (SMILES) | Kd
COc1ccc2cc1Oc1ccc(cc1)C[C@H]1c3cc(c(OC)cc3CCN1C)Oc1c(OC)c(OC)cc3c1[C@H](C2)N(C)CC3 | > 4 mM (inactive)
CC1(O)CC2C=CC1C2 (stereo not given) | > 4 mM (inactive)
CN1CCN(C2CCN(Cc3ccccc3)CC2)CC1 | > 4 mM (inactive)
O=C1Cn2c(nc3ccccc32)N1c1ccccc1F | > 4 mM (inactive)
CN1C2CC[C@@H]1CC(OC(=O)[C@H](CO)c1ccccc1)C2 (stereo not given in full) | > 4 mM (inactive)
C[C@]12CC(=O)C3C(CC[C@@H]4C[C@H](O)CC[C@]34C)C1CC[C@]2(O)C(=O)CO (stereo not given in full) | > 4 mM (inactive)
Cc1nc2ccccc2c(=O)n1-c1cccc(O)c1 | > 4 mM (inactive)
COC(=O)CSc1n[nH]c(N)n1 | > 4 mM (inactive)
O=C1C[C@@H](c2ccc(O)cc2)Oc2cc(O)cc(O)c21 | > 4 mM (inactive)
O=C1NCC(=O)N2CCc3ccccc3C12 (stereo not given) | > 4 mM (inactive)
O=C1N=c2ccccc2=C1c1sc(=S)[nH]c1O | > 4 mM (inactive)
Cc1cc(NC(=O)c2ocnc2C)no1 | > 4 mM (inactive)
c1cncc(Cn2cccc2)c1 | > 4 mM (inactive)
O=C(O)Cn1nnn(-c2ccccc2)c1=S | > 4 mM (inactive)
CC(C)[C@@H]1CC[C@@H](C)CC1=O | > 4 mM (inactive)
Nc1ccc2c(c1)N1CCN=C1S2 | > 4 mM (inactive)
NCc1ccc(-c2cccs2)cc1 | > 4 mM (inactive)
NN1C(=O)CSC1=Nc1ccccc1 | > 4 mM (inactive)
OC1CCN(Cc2ccc[nH]2)CC1 | > 4 mM (inactive)
COc1ccc([C@@H]2CC(=O)c3c(O)cc(O[C@@H]4O[C@H](CO[C@H]5O[C@@H](C)[C@H](O)[C@@H](O)[C@H]5O)[C@@H](O)[C@H](O)[C@H]4O)cc3O2)cc1O | > 4 mM (inactive)
CCOC(=O)c1[nH]c(C)cc1C | > 4 mM (inactive)
O=C(NCc1ccccn1)c1ccccc1Cl | > 4 mM (inactive)
c1csc(-c2nn[nH]n2)c1 | > 4 mM (inactive)

Structure (SMILES) | Kd
COCc1cc(C)nc2sc(C(=O)OC)c(N)c12 | > 4 mM (inactive)
Cc1cc(=O)[nH]c(NCC(=O)O)n1 | > 4 mM (inactive)
Cc1nnc(-n2cnc3ccccc32)c2ccccc12 | > 4 mM (inactive)
CC(=O)N1CCn2c3c(c(=O)c4cc(C)ccc42)CCC31 (stereo not given) | > 4 mM (inactive)
O=C(c1ccncc1)N1CCN(C(=O)c2ccco2)CC1 | > 4 mM (inactive)
CCCS(=O)(=O)N1CCN(c2ccccn2)CC1 | > 4 mM (inactive)
NC(=O)c1cccc(N2C(=O)C=CC2=O)c1 | > 4 mM (inactive)
COc1nc(C)ccc1-c1noc(-c2ccco2)n1 | > 4 mM (inactive)
O=C(NN1CCOCC1)c1cccs1 | > 4 mM (inactive)
Cc1nc(-c2cccc(-c3noc(C)n3)c2)no1 | > 4 mM (inactive)
Cc1nc(-c2ccc(NS(C)(=O)=O)cc2)cs1 | > 4 mM (inactive)
OCc1ccc(-n2cccn2)cc1 | > 4 mM (inactive)
O=c1cc(O)n(-c2ccc(F)cc2)c(=S)[nH]1 | > 4 mM (inactive)
CSc1nc(=O)[nH]c2c1CCC2 | > 4 mM (inactive)
Nc1ccc2ncsc2c1 | > 4 mM (inactive)
CN=C(C)c1c(O)n(C)c(=S)n(C)c1=O | > 4 mM (inactive)
OC[C@H]1O[C@@H](n2cnc3c(NCc4ccco4)ncnc32)[C@H](O)[C@@H]1O | > 4 mM (inactive)
O=C(c1ccc(N2CCNCC2)cc1)c1cccnc1 | > 4 mM (inactive)
O=C1NC(=O)C(Cc2ccccc2)C(=O)N1 | > 4 mM (inactive)
O=C1CC(NCc2ccco2)C(=O)NN1 (stereo not given) | > 4 mM (inactive)
Nc1nc(SCc2ccccc2)ns1 | > 4 mM (inactive)
Nc1cccc(F)c1-c1ncon1 | > 4 mM (inactive)
C[n+]1ccc(C(=O)[O-])cc1 | > 4 mM (inactive)

Structure (SMILES) | Kd
Cn1nc(C(=O)NC2CCCCC2)c2ccccc2c1=O | > 4 mM (inactive)
c1ccc2nc3c(nc2c1)CCc1nonc1-3 | > 4 mM (inactive)
O=C(Nc1ccc2ccccc2c1)c1cnccn1 | > 4 mM (inactive)
O=C(NCC1CCNCC1)c1ccncc1 | > 4 mM (inactive)
O=C(Cn1cnc2ccccc2c1=O)N1CCOCC1 | > 4 mM (inactive)
Cc1ccccc1-n1c(-c2ccncc2)n[nH]c1=S | > 4 mM (inactive)
O=C(Cc1c(F)cccc1Cl)Nc1ccncc1 | > 4 mM (inactive)
CC(=O)O[C@]1(C)CC[C@@]23CC1C(C)(C)[C@@H]2CC[C@H]3C | > 4 mM (inactive)
CCc1noc(C)c1C(=O)N1CCCC1 | > 4 mM (inactive)
COc1cc(-c2coc3cc(OCc4ccccc4)c(OC)c(O)c3c2=O)cc(O)c1OC | > 4 mM (inactive)
O=C1CCC(=O)N1CN1CCOCC1 | > 4 mM (inactive)
CC1(C)C2CC(=O)[C@]3(C)C(CC[C@@]4(C)[C@H](c5ccoc5)OC(=O)[C@H]5O[C@]543)[C@@]2(C)C=C[C@@H]1O (stereo not given in full) | > 4 mM (inactive)
O=C(Nc1ccc(O)cc1)N1CCOCC1 | > 4 mM (inactive)
COc1ccc(-c2cc(=O)c3c(O)cc(O[C@@H]4O[C@H](CO[C@H]5O[C@H](C)[C@@H](O)[C@H](O)[C@@H]5O)[C@@H](O)[C@H](O)[C@H]4O)cc3o2)cc1O | > 4 mM (inactive)
Cc1ccc(C)n1CCN1CCNCC1 | > 4 mM (inactive)
Nc1nc(NCc2ccco2)nn1-c1ccccc1 | > 4 mM (inactive)
CN(C)C(=O)Oc1ccc(-c2nnco2)cc1 | > 4 mM (inactive)
O=C(Nc1ccccc1C(F)(F)F)N1CCCCCC1 | > 4 mM (inactive)
c1ccc(SCc2nc(-c3ccncc3)no2)cc1 | > 4 mM (inactive)
NC(=O)c1cc(Cl)c(C(N)=O)cc1Cl | > 4 mM (inactive)
CC(C)C(=O)NC(=S)N1CCOCC1 | > 4 mM (inactive)
Cc1oc(-c2ccccc2)nc1CC(=O)O | > 4 mM (inactive)
COc1ccc2[nH]cc(CCN(C)C)c2c1 | > 4 mM (inactive)
